The source of these data is patent US10471046B2, “Method for treating, preventing, or reducing the risk of skin infection” (Melinta Subsidiary Corp., priority 2014, dated 2019).

≈ marks a conversion by molar mass, not a printed value.

The subject of the assay is S. aureus. Kind of assay: Minimum inhibitory concentrations (MICs) for S. aureus of exemplary compounds (Table 2). It counts as cell-based. Conditions: Staphylococcus aureus, minimum inhibitory concentrations for S. aureus; read-out: MICs. The procedure, abridged:
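MICs (μg/mL) against S. aureus come from microtiter-tray dilution susceptibility testing per NCCLS M7-A5, comparing growth with and without compound.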

Consider `CC(=O)NC[C@H]1CN(c2ccc(-c3ccc(CNCc4c[nH]c(=O)[nH]c4=O)cc3)c(F)c2)C(=O)O1` [Compound 4101, N-[3-(4′-{[(2,4-Dioxo-1,2,3,4-tetrahydro-pyrimidin-5-ylmethyl)-amino]-methyl}-2-fluoro-biphenyl-4-yl)-2-oxo-oxazolidin-5-(S)-ylmethyl]-acetamide], for which the MIC came out at 1 µg/mL (≈ 2.08 µM). Next, `CC(=O)NC[C@H]1CN(c2ccc(-c3ccc(Cn4ccnn4)c(F)c3)c(F)c2)C(=O)O1` [Compound 1009, N-[3-(2,3′-Difluoro-4′-[1,2,3]triazol-1-ylmethyl-biphenyl-4-yl)-2-oxo-oxazolidin-5-(S)-ylmethyl]-acetamide]: 0.25 µg/mL (≈ 0.585 µM); `CC(=O)NC[C@H]1CN(c2ccc(-c3ccc([C@@H](CO)NCc4cocn4)cc3)c(F)c2)C(=O)O1` [Compound 4200, N-[3-(2-Fluoro-4′-{2-hydroxy-1-(S)-[(oxazol-4-ylmethyl)-amino]-ethyl}-biphenyl-4-yl)-2-oxo-oxazolidin-5-(S)-ylmethyl]-acetamide]: 4 µg/mL (≈ 8.54 µM). `CC(=O)NC[C@H]1CN(c2ccc(-c3ccc(CNC(=O)C4CN(C(=O)OC(C)(C)C)C4)cc3)c(F)c2)C(=O)O1` [Compound 4290, 3-({4′-[5-(S)-(Acetylamino-methyl)-2-oxo-oxazolidin-3-yl]-2′-fluoro-biphenyl-4-ylmethyl}-carbamoyl)-azetidine-1-carboxylic acid tert-butyl ester]: the MIC was 16 µg/mL (≈ 29.6 µM). For the molecule `CC(=O)NC[C@H]1CN(c2ccc(-c3ccc([C@H](CO)n4ccnn4)cc3)c(F)c2)C(=O)O1` [Compound 1073, N-{3-[2-Fluoro-4′-(2-hydroxy-1-(R)-[1,2,3]triazol-1-yl-ethyl)-biphenyl-4-yl]-2-oxo-oxazolidin-5-(S)-ylmethyl}-acetamide], the MIC was determined as 1 µg/mL (≈ 2.28 µM). The same measure for `CC(=O)NC[C@H]1CN(c2ccc(-c3ccc(CNCc4c(C)[nH]c(=O)[nH]c4=O)cc3)c(F)c2)C(=O)O1` [Compound 4057, N-[3-(2-Fluoro-4′-{[(6-methyl-2,4-dioxo-1,2,3,4-tetrahydro-pyrimidin-5-ylmethyl)-amino]-methyl}-biphenyl-4-yl)-2-oxo-oxazolidin-5-(S)-ylmethyl]-acetamide]: 16 µg/mL (≈ 32.3 µM); for `CC(=O)NC[C@H]1CN(c2ccc(-c3ccc(CN(C)Cc4cc(Cl)cc(Cl)c4)cc3)c(F)c2)C(=O)O1` [Compound 4046, N-[3-(4′-{[(3,5-Dichloro-benzyl)-methyl-amino]-methyl}-2-fluoro-biphenyl-4-yl)-2-oxo-oxazolidin-5-(S)-ylmethyl]-acetamide]: 4 µg/mL (≈ 7.54 µM); for `CC(=O)NC[C@H]1CN(c2ccc(-c3ccc(CNCc4ccc(N(C)C)cc4)cc3)c(F)c2)C(=O)O1` [Compound 4062, N-(3-{4′-[(4-Dimethylamino-benzylamino)-methyl]-2-fluoro-biphenyl-4-yl}-2-oxo-oxazolidin-5-(S)-ylmethyl)-acetamide]: 2 µg/mL (≈ 4.08 µM). Next, `CC(=O)NC[C@H]1CN(c2ccc(-c3ccc(C[S+]([O-])c4ccncc4)cc3)c(F)c2)C(=O)O1` (stereo partly drawn) [Compound 2022, N-{3-[2-Fluoro-4′-(pyridine-4-sulfinylmethyl)-biphenyl-4-yl]-2-oxo-oxazolidin-5-(S)-ylmethyl}-acetamide]: 2 µg/mL (≈ 4.28 µM); `CC(=O)NC[C@H]1CN(c2ccc(-c3ccc(CN(Cc4csnn4)C(C)=O)cc3)c(F)c2)C(=O)O1` [Compound 4204, N-(3-{4′-[(Acetyl-[1,2,3]thiadiazol-4-ylmethyl-amino)-methyl]-2-fluoro-biphenyl-4-yl}-2-oxo-oxazolidin-5-(S)-ylmethyl)-acetamide]: 2 µg/mL (≈ 4.02 µM). The same measure for `CC(=O)NC[C@H]1CN(c2ccc(-c3ccc([C@@H](NCc4ccccn4)C(N)=O)cc3)c(F)c2)C(=O)O1` [Compound 4185]: 16 µg/mL (≈ 32.6 µM); for `CC(=O)NC[C@H]1CN(c2ccc(-c3ccc(Cn4nnc(N)n4)cc3)c(F)c2)C(=O)O1` [Compound 1024, N-{3-[4′-(5-Amino-tetrazol-2-ylmethyl)-2-fluoro-biphenyl-4-yl]-2-oxo-oxazolidin-5-(S)-ylmethyl}-acetamide]: 0.25 µg/mL (≈ 0.588 µM); for `CC(=O)NC[C@H]1CN(c2ccc(-c3ccc([C@H](O)Cn4ccnn4)cc3)c(F)c2)C(=O)O1` [Compound 1061, N-{3-[2-Fluoro-4′-(1-(S)-hydroxy-2-[1,2,3]triazol-1-yl-ethyl)-biphenyl-4-yl]-2-oxo-oxazolidin-5-(S)-ylmethyl}-acetamide]: 1 µg/mL (≈ 2.28 µM). Consider `CC(=O)NC[C@H]1CN(c2ccc(-c3ccc(C[S+]([O-])Cc4ccncc4)cc3)c(F)c2)C(=O)O1` (stereo partly drawn) [Compound 4212, N-{3-[2-Fluoro-4′-(pyridin-4-ylmethanesulfinylmethyl)-biphenyl-4-yl]-2-oxo-oxazolidin-5-(S)-ylmethyl}-acetamide], for which the MIC was found to be 0.25 µg/mL (≈ 0.519 µM).

As for `CC(=O)NC[C@H]1CN(c2ccc(-c3ccc(Cn4cnc(N)n4)cc3)c(F)c2)C(=O)O1` [Compound 1069, N-{3-[4′-(3-Amino-[1,2,4]triazol-1-ylmethyl)-2-fluoro-biphenyl-4-yl]-2-oxo-oxazolidin-5-(S)-ylmethyl}-acetamide], the MIC came out at 1 µg/mL (≈ 2.36 µM). The same measure for `CC(=O)NC[C@H]1CN(c2ccc(-c3ccc(C(=O)NCc4ccco4)cc3)c(F)c2)C(=O)O1` [Compound 4111, 4′-[5-(S)-(Acetylamino-methyl)-2-oxo-oxazolidin-3-yl]-2′-fluoro-biphenyl-4-carboxylic acid (furan-2-ylmethyl)-amide]: 2 µg/mL (≈ 4.43 µM); for `CC(=O)NC[C@H]1CN(c2ccc(-c3ccc(CNC(=O)C4CNC4)cc3)c(F)c2)C(=O)O1` [Compound 4291, Azetidine-3-carboxylic acid {4′-[5-(S)-(acetylamino-methyl)-2-oxo-oxazolidin-3-yl]-2′-fluoro-biphenyl-4-ylmethyl}-amide]: 8 µg/mL (≈ 18.2 µM); for `CC(=O)NC[C@H]1CN(c2ccc(-c3ccc(CN(Cc4[nH]nnc4C)Cc4[nH]nnc4C)cc3)c(F)c2)C(=O)O1` [Compound 4270, N-[3-(4′-{[Bis-(5-methyl-3H-[1,2,3]triazol-4-ylmethyl)-amino]-methyl}-2-fluoro-biphenyl-4-yl)-2-oxo-oxazolidin-5-(S)-ylmethyl]-acetamide]: 4 µg/mL (≈ 7.3 µM). The same measure for `CC(=O)NC[C@H]1CN(c2ccc(-c3ccc(Cn4ccnn4)cc3)c(F)c2)C(=O)O1` [Compound 1015, N-[3-(2-Fluoro-4′-[1,2,3]triazol-1-ylmethyl-biphenyl-4-yl)-2-oxo-oxazolidin-5-(S)-ylmethyl]-acetamide]: 0.25 µg/mL (≈ 0.611 µM); for `CC(=O)NC[C@H]1CN(c2ccc(-c3ccc(CNCCCc4cn[nH]c4C)cc3)c(F)c2)C(=O)O1` [Compound 4148, N-[3-(2-Fluoro-4′-{[3-(5-methyl-1H-pyrazol-4-yl)-propylamino]-methyl}-biphenyl-4-yl)-2-oxo-oxazolidin-5-(S)-ylmethyl]-acetamide]: 2 µg/mL (≈ 4.17 µM); for `CC(=O)NC[C@H]1CN(c2ccc(-c3ccc(CNC(=O)c4ccc5c(c4)OCO5)cc3)c(F)c2)C(=O)O1` [Compound 4014, Benzo[1,3]dioxole-5-carboxylic acid {4′-[5-(S)-(acetylamino-methyl)-2-oxo-oxazolidin-3-yl]-2′-fluoro-biphenyl-4-ylmethyl}-amide]: 4 µg/mL (≈ 7.91 µM). The same measure for `CSc1nnnn1Cc1ccc(-c2ccc(N3C[C@H](CNC(C)=O)OC3=O)cc2F)cc1` [Compound 1079, N-{3-[2-Fluoro-4′-(5-methylsulfanyl-tetrazol-1-ylmethyl)-biphenyl-4-yl]-2-oxo-oxazolidin-5-(S)-ylmethyl}-acetamide]: 2 µg/mL (≈ 4.38 µM). For `CC(=O)NC[C@H]1CN(c2ccc(-c3ccc(CNC(=O)Nc4ccncc4)cc3)c(F)c2)C(=O)O1` [Compound 5012, N-(3-{2-Fluoro-4′-[(3-pyridin-4-yl-ureido)-methyl]-biphenyl-4-yl}-2-oxo-oxazolidin-5-(S)-ylmethyl)-acetamide], the MIC was 2 µg/mL (≈ 4.19 µM). For the molecule `CC(=O)NC[C@H]1CN(c2ccc(-c3ccc(Cn4cnc5c(NCCO)ncnc54)cc3)c(F)c2)C(=O)O1` [Compound 1099, N-(3-{2-Fluoro-4′-[6-(2-hydroxy-ethylamino)-purin-9-ylmethyl]-biphenyl-4-yl}-2-oxo-oxazolidin-5-(S)-ylmethyl)-acetamide], the MIC was 2 µg/mL (≈ 3.85 µM).

Turning to `CC(=O)NC[C@H]1CN(c2ccc(-c3ccc(C(=O)NCCc4cnc[nH]4)cc3)c(F)c2)C(=O)O1` [Compound 4116, 4′-[5-(S)-(Acetylamino-methyl)-2-oxo-oxazolidin-3-yl]-2′-fluoro-biphenyl-4-carboxylic acid [2-(3H-imidazol-4-yl)-ethyl]-amide], the MIC was determined as 1 µg/mL (≈ 2.15 µM). The same measure for `CC(=O)NC[C@H]1CN(c2ccc(-c3ccc(CNC(=O)/C=C/c4cccnc4)cc3)c(F)c2)C(=O)O1` [Compound 4002, N-{4′-[5-(S)-(Acetylamino-methyl)-2-oxo-oxazolidin-3-yl]-2′-fluoro-biphenyl-4-ylmethyl}-3-pyridin-3-yl-acrylamide]: 4 µg/mL (≈ 8.19 µM); for `CC(=O)NC[C@H]1CN(c2ccc(-c3ccc(CNC(=O)Nc4cccc(F)c4)cc3)c(F)c2)C(=O)O1` [Compound 5013, N-(3-{2-Fluoro-4′-[3-(3-fluoro-phenyl)-ureidomethyl]-biphenyl-4-yl}-2-oxo-oxazolidin-5-(S)-ylmethyl)-acetamide]: 32 µg/mL (≈ 64.7 µM). For `CC(=O)NC[C@H]1CN(c2ccc(-c3ccc(CNC(=O)[C@@H](Cc4c[nH]c5ccccc45)NC(=O)OC(C)(C)C)cc3)c(F)c2)C(=O)O1` [Compound 4308, [1-(R)-({4′-[5-(S)-(Acetylamino-methyl)-2-oxo-oxazolidin-3-yl]-2′-fluoro-biphenyl-4-ylmethyl}-carbamoyl)-2-(1H-indol-3-yl)-ethyl]-carbamic acid tert-butyl ester], the MIC was determined as 128 µg/mL (≈ 199 µM). The same measure for `CC(=O)NC[C@H]1CN(c2ccc(-c3ccc(CN4CCCC(F)C4)cc3)c(F)c2)C(=O)O1` (mixture of isomers) [Compound 1096, N-{3-[2-Fluoro-4′-(3-(R/S)-fluoro-piperidin-1-ylmethyl)-biphenyl-4-yl]-2-oxo-oxazolidin-5-(S)-ylmethyl}-acetamide]: 1 µg/mL.
